Laboratory results as given in US4016158A, “Cephalosporin derivatives” (Roussel-UCLAF, priority 1971, dated 1977).
Values after ≈ are worked out from the molar mass of the structure shown. Read-outs that look alike come from different tables or passages of the source.

Experiments:
Escherichia coli 5524 = experiment: MIC (Table II); type: cell-based; conditions: read-out: minimum inhibition concentration
Method in brief: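 Minimum inhibitory concentrations, expressed in mcg/ml, were obtained by a diffusion method on gelose medium buffered at pH 7.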

[1] = tested on: Diplococcus pneumoniae 735; experiment: bactericidal activity (germs still alive); type: cell-based; design: key: +++: all the germs are still alive; +: it remains some colonies; -: it does not remain any germ
Protocol: (§1) The bactericidal activity of product A was ascertained by determining the number of germs still alive after treatment with increasing doses of antibiotic on a liquid media. From the cultures in tubes having 72 hours (previously described method), were placed on agar in Petri dishes a constant sample of the last tube having grown and of the following tubes where no more growth in transillumination is observed. After 48 hours of culture in the Petri dishes, the number of colonies was ascertained.

Escherichia coli 070 = experiment: bactericidal activity (germs still alive); type: cell-based; design: key: +++: all the germs are still alive; +: it remains some colonies; -: it does not remain any germ
Protocol: as §1

Escherichia coli 4965 = experiment: bactericidal activity (germs still alive); type: cell-based; design: key: +++: all the germs are still alive; +: it remains some colonies; -: it does not remain any germ
Protocol: as §1

[2] = tested on: Streptococcus hemolyticus 905; experiment: bactericidal activity (germs still alive); type: cell-based; design: key: +++: all the germs are still alive; +: it remains some colonies; -: it does not remain any germ
Protocol: as §1

[3] = tested on: Streptococcus hemolyticus 920; experiment: bactericidal activity (germs still alive); type: cell-based; design: key: +++: all the germs are still alive; +: it remains some colonies; -: it does not remain any germ
Protocol: as §1

Staphylococcus aureus = experiment: in vivo antibacterial activity, experimental staphylococcia in mice, oral
Protocol: The in vivo antibacterial activity for product A was determined in mice with an experimental staphylococcia. 50 male mice weighing 20 to 23 g were divided into 5 groups of 10 mice each and all were infected interperitoneally with 0.5 ml of a 15 hour culture of Staphylococcus aureus in Pasteur nutritive broth diluted 1/3 with distilled water. Each mouse received product A orally 1 hour and 5 hours after the infection.

[4] = 0.5 mg repeated two times, oral
[5] = 0.5 mg repeated two times, oral, 10 mice
[6] = 1.0 mg repeated two times, oral
[7] = 2.0 mg repeated two times, oral
[8] = 3.0 mg repeated two times, oral

CC(C)C1=C(C(=O)O)N2C(=O)[C@@H](NC(=O)[C@H](N)c3ccccc3)[C@H]2SC1 [Example 9, L (+) cis 7-[D (-)-α-aminophenylacetamido]-3-isopropyl-3-cepheme-4-carboxylic acid]
MIC (Escherichia coli 5524; 24h): 60 µg/mL (≈ 160 µM)
MIC (Escherichia coli 5524; 48h): 60 µg/mL (≈ 160 µM)
MIC (Escherichia coli 5524; 72h): 60 µg/mL (≈ 160 µM)
germs still alive ([1]; 1 μg/ml): +++
germs still alive ([1]; 2 μg/ml): -
germs still alive ([1]; 3 μg/ml): -
germs still alive (Escherichia coli 070; 30 μg/ml): +++
germs still alive (Escherichia coli 070; 40 μg/ml): -
germs still alive (Escherichia coli 4965; 30 μg/ml): +++
germs still alive (Escherichia coli 4965; 40 μg/ml): -
germs still alive ([2]; 1 μg/ml): +++
germs still alive ([2]; 2 μg/ml): -
germs still alive ([2]; 3 μg/ml): -
germs still alive ([3]; 2 μg/ml): +++
germs still alive ([3]; 3 μg/ml): -
Mice living on 8th day (Staphylococcus aureus; [4]): 7/10
Mice living on 8th day (%) (Staphylococcus aureus; [4]): 70%
Mortality at 10h (Staphylococcus aureus; [5]): 1
Mortality at 22h (Staphylococcus aureus; [5]): 1
Mortality at 70h (Staphylococcus aureus; [5]): 1
Mice living on 8th day (Staphylococcus aureus; [6]): 9/10
Mice living on 8th day (%) (Staphylococcus aureus; [6]): 90%
Mortality at 70h (Staphylococcus aureus; 1.0 mg repeated two times, oral, 10 mice): 1
Mice living on 8th day (Staphylococcus aureus; [7]): 10/10
Mice living on 8th day (%) (Staphylococcus aureus; [7]): 100%
Mice living on 8th day (Staphylococcus aureus; [8]): 10/10
Mice living on 8th day (%) (Staphylococcus aureus; [8]): 100%
antibacterial activity (Staphylococcus aureus; administered orally, 1 hour and 5 hours after infection): good antibacterial activity
